Assay results from ChEMBL document CHEMBL1201862, “PubChem BioAssay data set” (2004).
Active and inactive are the calls of the source.

Key:
[1] = Inhibition of T. cruzi Tulahuen strain amastigotes in L-6 muscle cells Measured in Cell-Based and Microorganism Combination System Using Plate Reader - 2138-03_Inhibitor_Dose_CherryPick_Activity.; format: functional; conditions: Rattus norvegicus, L6
[2] = cytotoxicity in L-6 rat myocytes, dose response, cytotoxicity control, cell-based, plate reader, cherry-pick (AID 651896); format: functional
[3] = Inhibition of Plasmodium falciparum NF54 Measured in Cell-Based System Using Plate Reader - 2138-11_Inhibitor_Dose_CherryPick_Activity.; format: functional
[4] = L. donovani amastigote growth inhibition, dose response, axenic amastigotes, plate reader, cherry pick (AID 651891); format: functional, cell-based; conditions: Leishmania donovani
[5] = NIH/3T3 fibroblast cytotoxicity, dose response, cytotoxicity control for T. cruzi growth inhibitor project, cell-based, cherry-pick samples, set 2 (AID 651817); format: functional; conditions: NIH3T3
[6] = intracellular Trypanosoma cruzi inhibitors in host cells – cell-based, plate reader, cherry-pick samples, set 3, dose response (AID 651818); format: functional;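 further: compounds incubated with infected cells for about four days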
[7] = T. b. rhodesiense proliferation inhibition, dose response, STIB900 strain, plate reader, cherry pick (AID 651893); format: functional, cell-based; conditions: Trypanosoma brucei
[8] = T. cruzi growth inhibition in host cells, dose response, cell-based, plate reader, dry powder, set 2 (AID 652275); format: functional
[9] = growth inhibition of intracellular T. cruzi, dose response, cell-based, plate reader, dry powder samples (AID 651845); format: functional
[10] = T. cruzi intracellular amastigote growth inhibition, dose response, imaging, CA-I/72 strain, bovine embryo skeletal muscle, dry powder (AID 651885); format: functional, cell-based
[11] = biological target: Paired box protein Pax-8 (Homo sapiens, UniProt Q06710); test: inhibitors of PAX8-driven TPO luciferase reporter, dose response, RMG-I cells, cherry-pick (AID 687027); format: functional, cell-based;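 further: luciferase reporter driven by Pax8 target thyroperoxidase promoter measured by SteadyGlo luminescence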
[12] = biological target: NAD-dependent protein deacylase sirtuin-5, mitochondrial (Homo sapiens, UniProt Q9NXA8); test: SIRT5 deacylase inhibitors, dose response, biochemical, fluorescence imaging, cherry-pick, set 6 (AID 720597)
[13] = PAX2 cell-based inhibition, dose response, selectivity assay for PAX8 inhibitor project, plate reader, dry powder samples (AID 743048); format: functional;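 further: HEK293 cells carrying a WT1 promoter luciferase reporter driven by expressed Pax2; potency is for inhibition of Pax2 driven reporter signal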
[14] = cytotoxicity in COV362 ovarian cancer cells, dose response, cytotoxicity control for PAX8 inhibitor project, cell-based, plate reader, dry powder, SA12 (AID 743144); format: functional
[15] = IOSE-T80 ovarian epithelial cell cytotoxicity, dose response, cytotoxicity control for PAX8 inhibitor project, plate reader, dry powder samples (AID 743045); format: functional, cell-based
[16] = PAX5 activity inhibitors, dose response, selectivity assay for PAX8 inhibitor project, cell-based, plate reader, dry powder samples (AID 743047); format: functional;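 further: HEK293 cells carrying a Pax5 driven CD19 promoter luciferase reporter; potency of inhibitors that lower reporter luminescence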
[17] = IGROV1 ovarian cancer cell cytotoxicity, dose response, PAX8 inhibitor project, plate reader, dry powder samples (AID 743043); format: functional, cell-based; conditions: IGROV-1
[18] = cytotoxicity in OVCAR4 cells, dose response, cytotoxicity control for PAX8 inhibitor project, cell-based, plate reader, dry powder, SA11 (AID 743150); format: functional; conditions: OVCAR-4
[19] = cytotoxicity in COV434 cells, dose response, cytotoxicity control for PAX8 inhibitor project, cell-based, plate reader, dry powder, SA7 (AID 743145); format: functional
[20] = cytotoxicity in OV-90 ovarian cancer cells, dose response, PAX8 inhibitor project, cell-based, plate reader, dry powder, SA8 (AID 743149); format: functional
[21] = cytotoxicity in OVCAR8 ovarian cancer cells, dose response, PAX8 project, cell-based, plate reader, dry powder samples (AID 743197); format: functional; conditions: OVCAR-8
[22] = cytotoxicity dependent on PAX8, dose response, cell-based, plate reader, dry powder (AID 743049); format: functional
[23] = tested on: HEK293; test: HEK293T cell cytotoxicity, dose response, cytotoxicity control, ATP luminescence, cherry-pick samples (AID 687005); format: functional, cell-based; conditions: Homo sapiens;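 further: cells exposed to compound for 48 hours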
[24] = HEK293 Cytotoxicity Assay Measured in Cell-Based System Using Plate Reader - 7071-01_Inhibitor_Dose_CherryPick_Activity_Set2.; format: functional
[25] = biological target: Delta-type opioid receptor (Homo sapiens, UniProt P41143); test: Late-stage results from the probe development effort to identify antagonists of OPRK1: fluorescence-based cell-based dose response OPRD1 counterscreen.; format: functional
[26] = biological target: Mu-type opioid receptor (Homo sapiens, UniProt P35372); test: Late-stage results from the probe development effort to identify antagonists of OPRK1: luminescence-based cell-based dose response OPRM1 counterscreen.; format: functional
[27] = biological target: Potassium channel subfamily K member 3 (Homo sapiens, UniProt O14649); test: TASK1 (KCNK3) potassium channel inhibitors, SAR follow-up, CHO cells, FluxOR thallium flux (AID 652212); format: functional
[28] = A375 melanoma cell viability loss, dose response, counter-screen for MITF inhibitor project, CellTiter-Glo luminescence, dry powder, set 4 (AID 624364); format: functional, cell-based; conditions: A-375;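 further: A375 melanoma cells are MITF independent so this is a counter screen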
[29] = A375 melanoma cell cytotoxicity, dose response, counter-screen for MITF inhibitor project, CellTiter-Glo luminescence, dry powder, set 2 (AID 624489); format: functional, cell-based; conditions: A-375;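 further: actives are compounds lowering A375 viability meaning general cytotoxicity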
[30] = Mtb BioA inhibitors by displacement, dose response, biochemical, coupled fluorescence displacement, 20-point, dry powder (AID 743357); format: functional

Chain of Paired box protein Pax-8 (Q06710 whole entry): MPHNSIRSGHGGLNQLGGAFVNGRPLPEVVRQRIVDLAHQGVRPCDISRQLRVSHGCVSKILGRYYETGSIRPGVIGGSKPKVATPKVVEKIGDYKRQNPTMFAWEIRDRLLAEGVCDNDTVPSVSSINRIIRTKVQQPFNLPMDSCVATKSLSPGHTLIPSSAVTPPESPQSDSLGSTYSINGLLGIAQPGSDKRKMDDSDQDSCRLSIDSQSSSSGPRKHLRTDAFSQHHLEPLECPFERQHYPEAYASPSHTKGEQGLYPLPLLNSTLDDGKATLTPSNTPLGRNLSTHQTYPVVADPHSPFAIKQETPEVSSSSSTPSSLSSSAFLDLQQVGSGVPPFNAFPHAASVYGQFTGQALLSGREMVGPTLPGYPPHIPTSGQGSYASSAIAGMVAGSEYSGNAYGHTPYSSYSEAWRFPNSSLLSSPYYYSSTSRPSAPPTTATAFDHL
Chain of Delta-type opioid receptor (P41143 whole entry): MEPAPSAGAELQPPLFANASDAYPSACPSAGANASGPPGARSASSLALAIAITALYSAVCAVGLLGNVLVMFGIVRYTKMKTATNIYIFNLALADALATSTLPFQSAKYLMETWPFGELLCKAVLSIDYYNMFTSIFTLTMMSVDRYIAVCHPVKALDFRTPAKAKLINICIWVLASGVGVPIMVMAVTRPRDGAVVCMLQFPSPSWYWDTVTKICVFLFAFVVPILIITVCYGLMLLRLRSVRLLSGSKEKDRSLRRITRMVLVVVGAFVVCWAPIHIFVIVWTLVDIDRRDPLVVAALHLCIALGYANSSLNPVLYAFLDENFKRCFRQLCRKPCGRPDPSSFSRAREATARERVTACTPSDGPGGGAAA
Chain of Potassium channel subfamily K member 3 (O14649 whole entry): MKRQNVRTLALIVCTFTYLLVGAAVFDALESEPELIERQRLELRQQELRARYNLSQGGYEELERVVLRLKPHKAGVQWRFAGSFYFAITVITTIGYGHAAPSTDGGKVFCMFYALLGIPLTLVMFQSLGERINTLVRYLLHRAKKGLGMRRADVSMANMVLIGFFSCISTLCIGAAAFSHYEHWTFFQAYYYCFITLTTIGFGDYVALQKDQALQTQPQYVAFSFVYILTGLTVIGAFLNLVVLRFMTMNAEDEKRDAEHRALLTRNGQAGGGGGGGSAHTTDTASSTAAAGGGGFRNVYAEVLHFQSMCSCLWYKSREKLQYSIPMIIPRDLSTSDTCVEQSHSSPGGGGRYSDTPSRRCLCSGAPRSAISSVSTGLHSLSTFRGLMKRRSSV
Chain of NAD-dependent protein deacylase sirtuin-5, mitochondrial (Q9NXA8 whole entry): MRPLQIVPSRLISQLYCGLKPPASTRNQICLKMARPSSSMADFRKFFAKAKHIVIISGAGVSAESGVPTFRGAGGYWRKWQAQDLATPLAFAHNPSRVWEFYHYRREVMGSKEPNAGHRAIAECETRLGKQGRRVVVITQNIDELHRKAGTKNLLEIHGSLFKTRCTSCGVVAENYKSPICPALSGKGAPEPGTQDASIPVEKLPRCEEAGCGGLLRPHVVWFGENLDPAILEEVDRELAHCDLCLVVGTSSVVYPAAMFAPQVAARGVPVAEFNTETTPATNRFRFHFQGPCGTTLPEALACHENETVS
Chain of Mu-type opioid receptor (P35372 whole entry): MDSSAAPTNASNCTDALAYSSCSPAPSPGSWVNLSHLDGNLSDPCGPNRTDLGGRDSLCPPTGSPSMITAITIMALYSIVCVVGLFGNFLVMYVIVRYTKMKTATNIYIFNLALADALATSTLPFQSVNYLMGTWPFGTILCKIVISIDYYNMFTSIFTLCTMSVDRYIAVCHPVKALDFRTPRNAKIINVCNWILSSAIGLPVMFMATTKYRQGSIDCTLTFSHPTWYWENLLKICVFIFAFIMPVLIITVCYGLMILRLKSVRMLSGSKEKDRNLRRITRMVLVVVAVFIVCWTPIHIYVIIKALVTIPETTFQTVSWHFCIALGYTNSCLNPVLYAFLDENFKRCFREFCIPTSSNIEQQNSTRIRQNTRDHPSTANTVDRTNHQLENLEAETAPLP

## C[C@H]1CN([C@@H](C)CO)C(=O)c2cccc(NC(=O)c3ccncc3)c2O[C@@H]1CN(C)Cc1ccc(C(F)(F)F)cc1
[1]
  IC50: 2.95 µM (inactive)
[2]
  IC50: 45.5 µM (inactive)
[3]
  IC50: 2.95 µM (inactive)
[4]
  IC50: 16.3 µM (inactive)
[5]
  AC50: 39 µM (inactive)
[6]
  AC50: 0.304 µM (active)
[7]
  IC50: 3.49 µM (inactive)
[8]
  AC50: 0.0127 µM (active)
[9]
  AC50: 0.0127 µM (active)
[10]
  IC50: 0.00601 µM (active)

## Cc1ccc(S(=O)(=O)N(C)C[C@@H]2OCCCC[C@H](C)Oc3ccc(NS(=O)(=O)c4ccc(Cl)cc4)cc3C(=O)N([C@H](C)CO)C[C@H]2C)cc1
[11]
  AC50: 7.27 µM (active)
[12]
  AC50: > 30 µM (inactive)

## CCCNC(=O)N(C)C[C@H]1N[C@@H](CO)[C@@H]1c1ccc(C2=CCCCC2)cc1
[11]
  AC50: 3.47 µM (active)
[13]
  AC50: 8.91 µM (active)
[14]
  AC50: 10.7 µM (active)
[15]
  AC50: 25.9 µM (active)
[16]
  AC50: > 16 µM (inactive)
[17]
  AC50: 16.3 µM (active)
[18]
  AC50: 6.07 µM (active)
[19]
  AC50: 18.2 µM (active)
[20]
  AC50: 14.5 µM (active)
[21]
  AC50: 14.4 µM (active)
[22]
  AC50: 10.1 µM (active)

## Cc1ccc(S(=O)(=O)N2CC[C@@H]3[C@H](CO)Nc4ccc(-c5ccccc5F)cc4[C@@H]32)cc1
[23]
  AC50: 44.6 µM (active)
[24]
  AC50: 44.6 µM (active)

## COC(=O)c1cc(Br)cnc1N1CCC(NC2CCCC2)CC1
[25]
  IC50: 7 µM (active)
[26]
  IC50: 4 µM (active)

## CCOc1ccccc1NC(=O)c1cccc(NC(=O)C2CCCO2)c1 (stereo unspecified)
[27]
  IC50: 0.129 µM (active)

## O=C(NC1=C(N2CCCCC2)C(=O)c2ccccc2C1=O)c1ccccc1
[28]
  AC50: 54.4 µM (active)
[29]
  AC50: > 70 µM (inactive)

## CN1c2ccc(-c3cccc(F)c3)cc2[C@H]2[C@H](CCN2C(=O)CCCCCCC(=O)O)[C@H]1CO
[30]
  AC50: 16.7 µM (active)
